Consider two compounds from publication PMC12696353, “Structural insights into endogenous agonist selectivity of aminergic receptors from the octopamine β2 receptor” (PNAS Nexus, 2025).

What is called Emax is the maximal effect, on the per cent scale that the assay sets. One may read the EC50 as the concentration that produces a half-maximal response. The low end stands for a more potent agent, the high end for a less potent agent.

Molecules are shown by their SMILES. Changes are numbered by the printed parent chain.

The target of test [1] is I. scapularis octβ2R (is-octβ2R) (Ixodes scapularis, UniProt A0ACM8E5E8). In words: cell-based. The conditions noted are these: for Emax: AP-TGFα release. Format: cell-based. How it is done: (§1) The TGFα shedding assay was performed as previously described ([28]). […] The cells were transfected using lipofectamine 2000 with plasmids encoding alkaline phosphatase–tagged TGFα (AP-TGFα) (2.5 ng/mL), is-octβ2Rs (1 ng/mL), and Gαq/s (0.5 ng/mL). After 24 h, the cells were washed with phosphate-buffered saline and resuspended in Hank's balanced salt solution (HBSS) (supplemented with 5 mM HEPES [pH 7.4]). The cells (90 μL/well) were plated in a 96-well plate and incubated with 10 μL of HBSS solution containing various concentrations of compounds for 1 h at 37 °C. Following centrifugation (200 × g, 2 min), 80 μL of the supernatant was transferred to a separate 96-well plate. Subsequently, 80 µL of 2× para-nitrophenyl phosphate (pNPP) buffer (containing 10 mM pNPP in 40 mM Tris–HCl [pH 9.5], 40 mM NaCl, and 10 mM MgCl2) was added to both the supernatant and cell-containing plates. The optical density at 405 nm of both plates was measured before and after a 1 h incubation at room temperature using a microplate reader (SpectraMax iD3, Molecular Devices, San Jose, CA, United States). AP-TGFα release was calculated using the following formulas:
(§2) ΔOD405=OD450(1h)−OD405(0h)AP−TGFαinsupernatant(%)=(ΔOD405Sup/[ΔOD450Sup+ΔOD405Cell])×125AP−TGFαrelease(%)=AP−TGFαinsupernatantunderastimulatedcondition(%)−AP−TGFαinsupernatantunderavehicle−treatedcondition
(§3) where OD405 (0 h) and […] represent the OD405 before and after a 1 h incubation, respectively, and OD405Sup and OD405Cell represent the OD405 of supernatant and cell plates, respectively. For all pharmacological analyses, nonlinear regression curve fitting was performed with a 3-parameter sigmoid model (Hill coefficient = 1) using Prism 8 (GraphPad Software, La Jolla, CA, United States).

For test [2], the target named is T1, is-octβ2R I62^1.43T mutant (Ixodes scapularis, UniProt A0ACM8E5E8, I41T).
T1 sequence (A0ACM8E5E8 1-384 I41T): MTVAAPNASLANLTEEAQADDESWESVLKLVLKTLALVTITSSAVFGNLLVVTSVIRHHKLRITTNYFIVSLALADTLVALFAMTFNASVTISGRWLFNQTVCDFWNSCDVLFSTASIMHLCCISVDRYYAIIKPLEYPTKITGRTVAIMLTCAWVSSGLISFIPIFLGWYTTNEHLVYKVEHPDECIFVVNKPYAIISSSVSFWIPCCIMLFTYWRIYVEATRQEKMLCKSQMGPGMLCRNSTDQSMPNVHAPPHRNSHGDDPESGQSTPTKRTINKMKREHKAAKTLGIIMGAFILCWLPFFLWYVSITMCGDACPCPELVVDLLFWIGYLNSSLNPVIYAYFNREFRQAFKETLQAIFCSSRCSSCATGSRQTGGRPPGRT
The experiment in a line: TGFα shedding assay, amitraz-resistant mutant I62^1.43T. Format: cell-based. The conditions noted are these: Table S4. How it is done:
as §1, §2, §3

The target of test [3] is T2, is-octβ2R Y67^2.41S mutant (Ixodes scapularis, UniProt A0ACM8E5E8, Y67S).
T2 sequence (A0ACM8E5E8 1-384 Y67S): T1 sequence (A0ACM8E5E8 1-384 I41T) with T41I, Y67S
In words: TGFα shedding assay, amitraz-resistant mutant Y67^2.41S. The test is classed as cell-based. The conditions noted are these: Table S4. How it is done:
as §1, §2, §3

In test [4] the target is T3, is-octβ2R Y215^5.58H mutant (Ixodes scapularis, UniProt A0ACM8E5E8, Y215H).
T3 sequence (A0ACM8E5E8 1-384 Y215H): T1 sequence (A0ACM8E5E8 1-384 I41T) with T41I, Y215H
The experiment in a line: TGFα shedding assay, amitraz-resistant mutant Y215^5.58H. The test is classed as cell-based. The protocol: as §1, §2, §3

Test [5] has as its system is-octβ2R Y215^5.58H mutant. The test is described as above. The test is classed as cell-based, Ixodes scapularis. Particulars: versus wild type. The protocol:
as §1, §2, §3

In test [6] the test system is is-octβ2R D110^3.32A mutant. The experiment in a line: TGFα shedding assay, mutant D110^3.32A. Format: cell-based, Ixodes scapularis. The conditions noted are these: Table S6. The protocol: as §1
(§4) ΔOD405=OD450(1h)−OD405(0h)AP−TGFαinsupernatant(%)=(ΔOD405Sup/[ΔOD450Sup+ΔOD405Cell])×125AP−TGFαrelease(%)=AP−TGFαinsupernatantunderastimulatedcondition(%)−AP−TGFαinsupernatantunderavehicle−treatedcondition […]

Test [7] concerns is-octβ2R D110^3.32N mutant. The experiment in a line: TGFα shedding assay, mutant D110^3.32N. Format: cell-based, Ixodes scapularis. The conditions noted are these: Table S6. How it is done:
as §1, §4

In test [8] the test system is is-octβ2R I118^3.40A mutant. In words: TGFα shedding assay, mutant I118^3.40A. The test is classed as cell-based, Ixodes scapularis. Particulars: Table S6. The protocol:
as §1, §4

Test [9] has as its system is-octβ2R Y195^5.38A mutant. In words: TGFα shedding assay, mutant Y195^5.38A. The test is classed as cell-based, Ixodes scapularis. The conditions noted are these: Table S6. The protocol: as §1, §4
Test [10] deals with is-octβ2R W300^6.48A mutant. The experiment in a line: TGFα shedding assay, mutant W300^6.48A. The test is classed as cell-based, Ixodes scapularis. The conditions noted are these: Table S6. How it is done:
as §1, §4

Test [11] relates to is-octβ2R F303^6.51A mutant. In words: TGFα shedding assay, mutant F303^6.51A. Format: cell-based, Ixodes scapularis. Particulars: Table S6. How it is done: as §1, §4
The target in test [12] is is-octβ2R F304^6.52A mutant (Ixodes scapularis, UniProt A0ACM8E5E8, F304A). In words: TGFα shedding assay, mutant F304^6.52A. The test is classed as cell-based. Particulars: Table S6. The protocol:
as §1, §4

Test [13] concerns is-octβ2R Y307^6.55A mutant. In words: TGFα shedding assay, mutant Y307^6.55A. Format: cell-based, Ixodes scapularis. Particulars: Table S6. The protocol:
as §1, §4

Test [14] deals with is-octβ2R Y332^7.43A mutant. The experiment in a line: TGFα shedding assay, mutant Y332^7.43A. The test is classed as cell-based, Ixodes scapularis. Particulars: Table S6. How it is done: as §1, §4
Setting [15] is: HEK293, 1 h, Table S2, wild type, HEK293 cells, mean ± SEM, n = 3.
Setting [16] is: logEC50, Table S2, wild type, HEK293 cells, mean ± SEM, n = 3.

For `CN/C=N/c1ccc(C)cc1C` [DPMF, N-2,4-dimethylphenyl-N′-methylformamidine], the Emax in [1] (1 h, Table S4, WT) came out at 21 ± 1%; in test [1] (1 h, Table S6, WT), 25 ± 0.7%; in test [1] (setting [15]), 24 ± 0.6%. For the same compound, the EC50 in [1] (LogEC50, Table S4, WT) is 7.94 nM; in [1] (setting [16]), 3.98 nM; in [2], 2 nM; in test [3] it was 6.31 nM; in test [4], 6.31 nM; in test [12], 63.1 nM. Further, in test [5], the “change of EC50 by the Y215^5.58H mutation” value is listed as “unaffected”. Moreover, the “reduction of maximal response (Emax) by the Y215^5.58H mutation” value in test [5] was roughly 50%. Moreover, the logEC50 entry in test [6], in [7], in [8], in test [9], in test [10] and in [11] was “no activity” throughout. Further, the results for the logEC50 entry in test [13] and in test [14] were “no activity” and “signal observed only at a concentration of 10^−5 M”, respectively.
With `NCC(O)c1ccc(O)cc1` (stereo not shown) [Octopamine, octopamine], the Emax stood at 23 ± 0.8% in test [1] (1 h, Table S4, WT); 27 ± 1.5% in [1] (1 h, Table S6, WT); 27 ± 0.7% in test [1] (setting [15]). Further, the EC50 in test [1] (LogEC50, Table S4, WT) is 10 nM; in test [1] (setting [16]), 20 nM; in [1] (logEC50, Table S6, WT) it was 25.1 nM; in test [2], 5.01 nM; in [3], 12.6 nM; in test [4], 15.8 nM. This compound had an EC50 in [12] of 398 nM. The “potency (EC50) relative to the other TDAs” value in [1] (wild type, order octopamine > tyramine > noradrenaline > dopamine) is reported as “highest potency”. Further, in test [5], the “change of EC50 by the Y215^5.58H mutation” value is 4 fold. In addition, the “reduction of maximal response (Emax) by the Y215^5.58H mutation” value in test [5] was roughly 50%. Moreover, the logEC50 entry in test [6], in [7], in test [8], in test [9], in test [10] and in [11] was “no activity” in each case. Also, the logEC50 result in test [13] is “no activity”; in test [14], “signal observed only at 10-5 M”.
